According to the supplement of paper PMC4862054:

Experiments:
Details in all cases: incubation time: 72 h
BT-474 [1] = experiment: normalised viability (% of control), CellTiter-Blue; higher = more viable cells (about 100 = DMSO control)
Procedure: (§1)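 DSRT, CellTiter-Blue viability, 72 h incubation. Signal is normalised to DMSO and benzethonium chloride controls. Value is the normalised response at dose 3.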

BT-549 [2] = experiment: as above
Procedure: as §1

CAL-148 [3] = experiment: as above
Procedure: as §1

CAL-51 [4] = experiment: as above
Procedure: as §1

CAL-85-1 [5] = experiment: as above
Procedure: as §1

HCC1599 [6] = experiment: as above
Procedure: as §1

HCC1937 [7] = experiment: as above
Procedure: as §1

HDQ-P1 [8] = experiment: as above
Procedure: as §1

Hs578T [9] = experiment: as above
Procedure: as §1

MDA-MB-231 [10] = experiment: as above
Procedure: as §1

MDA-MB-436 [11] = experiment: as above
Procedure: as §1

MDA-MB-468 [12] = experiment: as above
Procedure: as §1

MFM-223 [13] = experiment: as above
Procedure: as §1

SK-BR-3 [14] = experiment: as above
Procedure: as §1

BT-474 [15] = experiment: normalised viability (% of control), CellTiter-Blue; higher = more viable cells (100 = DMSO, 0 = benzethonium chloride kill control)
Procedure: (§2)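 DSRT, CellTiter-Blue viability, 72 h incubation. Signal is normalised to DMSO and benzethonium chloride controls. Value is the normalised response at dose 1.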

BT-549 [16] = experiment: as above
Procedure: as §2

CAL-120 = experiment: as above
Procedure: as §2

CAL-148 [17] = experiment: as above
Procedure: as §2

CAL-51 [18] = experiment: as above
Procedure: as §2

CAL-85-1 [19] = experiment: as above
Procedure: as §2

DU-4475 = experiment: as above
Procedure: as §2

HCC1143 = experiment: as above
Procedure: as §2

HCC1599 [20] = experiment: as above
Procedure: as §2

HCC1937 [21] = experiment: as above
Procedure: as §2

HDQ-P1 [22] = experiment: as above
Procedure: as §2

Hs578T [23] = experiment: as above
Procedure: as §2

MDA-MB-231 [24] = experiment: as above
Procedure: as §2

MDA-MB-436 [25] = experiment: as above
Procedure: as §2

MDA-MB-453 = experiment: as above
Procedure: as §2

MDA-MB-468 [26] = experiment: as above
Procedure: as §2

MFM-223 [27] = experiment: as above
Procedure: as §2

SK-BR-3 [28] = experiment: as above
Procedure: as §2

Structure (SMILES): Cn1cc(CNCC2CCN(c3ncc(C(=O)NO)cn3)CC2)c2ccccc21
- normalised viability (BT-474 [1]; 10 nM): 78.2%
- normalised viability (BT-549 [2]; 10 nM): 103%
- normalised viability (CAL-148 [3]; 1 nM): 98.3%
- normalised viability (CAL-51 [4]; 1 nM): 102%
- normalised viability (CAL-85-1 [5]; 1 nM): 90.7%
- normalised viability (HCC1599 [6]; 10 nM): 73.7%
- normalised viability (HCC1937 [7]; 10 nM): 76.4%
- normalised viability (HDQ-P1 [8]; 1 nM): 100%
- normalised viability (Hs578T [9]; 10 nM): 86.8%
- normalised viability (MDA-MB-231 [10]; 10 nM): 99.5%
- normalised viability (MDA-MB-436 [11]; 10 nM): 77.9%
- normalised viability (MDA-MB-468 [12]; 10 nM): 78.3%
- normalised viability (MFM-223 [13]; 10 nM): 74.7%
- normalised viability (SK-BR-3 [14]; 10 nM): 35.8%
- normalised viability (BT-474 [15]; 0.1 nM): 98.1%
- normalised viability (BT-549 [16]; 0.1 nM): 88.6%
- normalised viability (CAL-120; 0.1 nM): 89.2%
- normalised viability (CAL-148 [17]; 0.1 nM): 103%
- normalised viability (CAL-51 [18]; 0.1 nM): 105%
- normalised viability (CAL-85-1 [19]; 0.1 nM): 84.9%
- normalised viability (DU-4475; 0.1 nM): 97.6%
- normalised viability (HCC1143; 0.1 nM): 95.7%
- normalised viability (HCC1599 [20]; 0.1 nM): 101%
- normalised viability (HCC1937 [21]; 0.1 nM): 106%
- normalised viability (HDQ-P1 [22]; 0.1 nM): 83.6%
- normalised viability (Hs578T [23]; 0.1 nM): 120%
- normalised viability (MDA-MB-231 [24]; 0.1 nM): 95.6%
- normalised viability (MDA-MB-436 [25]; 0.1 nM): 87.9%
- normalised viability (MDA-MB-453; 0.1 nM): 98.8%
- normalised viability (MDA-MB-468 [26]; 0.1 nM): 91.1%
- normalised viability (MFM-223 [27]; 0.1 nM): 89.5%
- normalised viability (SK-BR-3 [28]; 0.1 nM): 97.5%

Structure (SMILES): O=C(NC[C@H](O)CO)c1ccncc1Nc1ccc(I)cc1F
- normalised viability (BT-474 [1]; 100 nM): 110%
- normalised viability (BT-549 [2]; 100 nM): 101%
- normalised viability (CAL-148 [3]; 10 nM): 80.3%
- normalised viability (CAL-51 [4]; 10 nM): 99.2%
- normalised viability (CAL-85-1 [5]; 10 nM): 90.6%
- normalised viability (HCC1599 [6]; 100 nM): 101%
- normalised viability (HCC1937 [7]; 100 nM): 88.7%
- normalised viability (HDQ-P1 [8]; 10 nM): 97.9%
- normalised viability (Hs578T [9]; 100 nM): 79.8%
- normalised viability (MDA-MB-231 [10]; 100 nM): 44.8%
- normalised viability (MDA-MB-436 [11]; 100 nM): 114%
- normalised viability (MDA-MB-468 [12]; 100 nM): 87.3%
- normalised viability (MFM-223 [13]; 100 nM): 85.4%
- normalised viability (SK-BR-3 [14]; 100 nM): 78.1%
- normalised viability (BT-474 [15]; 1 nM): 96.8%
- normalised viability (BT-549 [16]; 1 nM): 111%
- normalised viability (CAL-120; 1 nM): 81.3%
- normalised viability (CAL-148 [17]; 1 nM): 92.3%
- normalised viability (CAL-51 [18]; 1 nM): 99.6%
- normalised viability (CAL-85-1 [19]; 1 nM): 92.1%
- normalised viability (DU-4475; 1 nM): 92.6%
- normalised viability (HCC1143; 1 nM): 87.6%
- normalised viability (HCC1599 [20]; 1 nM): 108%
- normalised viability (HCC1937 [21]; 1 nM): 87.6%
- normalised viability (HDQ-P1 [22]; 1 nM): 103%
- normalised viability (Hs578T [23]; 1 nM): 111%
- normalised viability (MDA-MB-231 [24]; 1 nM): 92.5%
- normalised viability (MDA-MB-436 [25]; 1 nM): 124%
- normalised viability (MDA-MB-453; 1 nM): 87.9%
- normalised viability (MDA-MB-468 [26]; 1 nM): 104%
- normalised viability (MFM-223 [27]; 1 nM): 97.9%
- normalised viability (SK-BR-3 [28]; 1 nM): 92.1%

Structure (SMILES): Nc1nc(=O)c2c([nH]1)NCC(CNc1ccc(C(=O)N[C@@H](CCC(=O)O)C(=O)O)cc1)N2C=O (mixture of isomers) [Folinic acid]
- normalised viability (BT-474 [1]; 9.9 nM): 121%
- normalised viability (BT-549 [2]; 9.9 nM): 101%
- normalised viability (CAL-148 [3]; 0.99 nM): 88.3%
- normalised viability (CAL-51 [4]; 0.99 nM): 98.4%
- normalised viability (CAL-85-1 [5]; 0.99 nM): 106%
- normalised viability (HCC1599 [6]; 9.9 nM): 108%
- normalised viability (HCC1937 [7]; 9.9 nM): 110%
- normalised viability (HDQ-P1 [8]; 0.99 nM): 140%
- normalised viability (Hs578T [9]; 9.9 nM): 96%
- normalised viability (MDA-MB-231 [10]; 9.9 nM): 103%
- normalised viability (MDA-MB-436 [11]; 9.9 nM): 128%
- normalised viability (MDA-MB-468 [12]; 9.9 nM): 119%
- normalised viability (MFM-223 [13]; 9.9 nM): 95.5%
- normalised viability (SK-BR-3 [14]; 9.9 nM): 104%
- normalised viability (BT-474 [15]; 0.099 nM): 91.7%
- normalised viability (BT-549 [16]; 0.099 nM): 94.1%
- normalised viability (CAL-120; 0.099 nM): 95.4%
- normalised viability (CAL-148 [17]; 0.099 nM): 102%
- normalised viability (CAL-51 [18]; 0.099 nM): 92.7%
- normalised viability (CAL-85-1 [19]; 0.099 nM): 98.4%
- normalised viability (DU-4475; 0.099 nM): 113%
- normalised viability (HCC1143; 0.099 nM): 107%
- normalised viability (HCC1599 [20]; 0.099 nM): 117%
- normalised viability (HCC1937 [21]; 0.099 nM): 95.9%
- normalised viability (HDQ-P1 [22]; 0.099 nM): 131%
- normalised viability (Hs578T [23]; 0.099 nM): 105%
- normalised viability (MDA-MB-231 [24]; 0.099 nM): 101%
- normalised viability (MDA-MB-436 [25]; 0.099 nM): 113%
- normalised viability (MDA-MB-453; 0.099 nM): 104%
- normalised viability (MDA-MB-468 [26]; 0.099 nM): 117%
- normalised viability (MFM-223 [27]; 0.099 nM): 105%
- normalised viability (SK-BR-3 [28]; 0.099 nM): 112%
